Literature values in publication PMC6026185 (Scientific Reports, 2018).
Where two headings read alike, the source gives them in different places.

Assays:
NKCC2 = tested on: NKCC2; design: method as in ref Palfrey et al.[48]; Schlatter et al.[23]; Frelin et al.[49]; O’Grady et al.[50]; Glanville et al.[51]; Hannaert et al.[52]; settings: Rabbit kidney TAL; rat kidney TAL; NKCC2 isoforms not differentiated; ref Palfrey et al.[48]; Schlatter et al.[23]; Frelin et al.[49]; O’Grady et al.[50]; Glanville et al.[51]; Hannaert et al.[52]; cited from earlier work
NKCC1 = settings: Activated state; isoforms not differentiated; turkey erythrocytes; mIMCD-K2 cells; chick cardiac cells; winter flounder intestine; rat erythrocytes and thymocytes; ref Palfrey et al.[48]; Schlatter et al.[23]; Frelin et al.[49]; O’Grady et al.[50]; Glanville et al.[51]; Hannaert et al.[52]; cited from earlier work
hNKCC2 isoform B = settings: Xenopus oocytes; ref Payne et al.[57]; Isenring et al.[58]; Plata et al.[59]; Carota et al.[56]; Lykke et al.[60]; Lykke et al.[29]; read-out: IC50 (µM) NKCC2 (hB); cited from earlier work
hNKCC2 isoform F = settings: Xenopus oocytes; ref Payne et al.[57]; Isenring et al.[58]; Plata et al.[59]; Carota et al.[56]; Lykke et al.[60]; Lykke et al.[29]; read-out: IC50 (µM) NKCC2 (hF); cited from earlier work
mNKCC2 isoform B = tested on: mNKCC2 isoform B; design: method as in ref Payne et al.[57]; Isenring et al.[58]; Plata et al.[59]; Carota et al.[56]; Lykke et al.[60]; Lykke et al.[29]; settings: Xenopus oocytes; ref Payne et al.[57]; Isenring et al.[58]; Plata et al.[59]; Carota et al.[56]; Lykke et al.[60]; Lykke et al.[29]; read-out: IC50 (µM) NKCC2 (mB); cited from earlier work
mNKCC2 isoform F = tested on: mNKCC2 isoform F; design: method as in ref Payne et al.[57]; Isenring et al.[58]; Plata et al.[59]; Carota et al.[56]; Lykke et al.[60]; Lykke et al.[29]; settings: Xenopus oocytes; ref Payne et al.[57]; Isenring et al.[58]; Plata et al.[59]; Carota et al.[56]; Lykke et al.[60]; Lykke et al.[29]; read-out: IC50 (µM) NKCC2 (mF); cited from earlier work
hNKCC1 [1] = settings: HEK-293 cells; activated state; NKCC1 isoforms not differentiated; ref Payne et al.[57]; Isenring et al.[58]; Plata et al.[59]; Carota et al.[56]; Lykke et al.[60]; Lykke et al.[29]; cited from earlier work
hNKCC1A = target: T1, hNKCC1A (Homo sapiens, UniProt P55011); design: method as in ref Payne et al.[57]; Isenring et al.[58]; Plata et al.[59]; Carota et al.[56]; Lykke et al.[60]; Lykke et al.[29]; settings: Xenopus oocytes; activated state; ref Payne et al.[57]; Isenring et al.[58]; Plata et al.[59]; Carota et al.[56]; Lykke et al.[60]; Lykke et al.[29]; read-out: IC50 (µM) NKCC1 (hA); cited from earlier work
T1 construct: Full-length NKCC1 (NKCC1A) comprises ~1200 amino acids; expressed in transfected cells; host or cells: Xenopus laevis oocytes injected with cRNA (pXOOM vector)
T1 sequence (P55011 1-1212): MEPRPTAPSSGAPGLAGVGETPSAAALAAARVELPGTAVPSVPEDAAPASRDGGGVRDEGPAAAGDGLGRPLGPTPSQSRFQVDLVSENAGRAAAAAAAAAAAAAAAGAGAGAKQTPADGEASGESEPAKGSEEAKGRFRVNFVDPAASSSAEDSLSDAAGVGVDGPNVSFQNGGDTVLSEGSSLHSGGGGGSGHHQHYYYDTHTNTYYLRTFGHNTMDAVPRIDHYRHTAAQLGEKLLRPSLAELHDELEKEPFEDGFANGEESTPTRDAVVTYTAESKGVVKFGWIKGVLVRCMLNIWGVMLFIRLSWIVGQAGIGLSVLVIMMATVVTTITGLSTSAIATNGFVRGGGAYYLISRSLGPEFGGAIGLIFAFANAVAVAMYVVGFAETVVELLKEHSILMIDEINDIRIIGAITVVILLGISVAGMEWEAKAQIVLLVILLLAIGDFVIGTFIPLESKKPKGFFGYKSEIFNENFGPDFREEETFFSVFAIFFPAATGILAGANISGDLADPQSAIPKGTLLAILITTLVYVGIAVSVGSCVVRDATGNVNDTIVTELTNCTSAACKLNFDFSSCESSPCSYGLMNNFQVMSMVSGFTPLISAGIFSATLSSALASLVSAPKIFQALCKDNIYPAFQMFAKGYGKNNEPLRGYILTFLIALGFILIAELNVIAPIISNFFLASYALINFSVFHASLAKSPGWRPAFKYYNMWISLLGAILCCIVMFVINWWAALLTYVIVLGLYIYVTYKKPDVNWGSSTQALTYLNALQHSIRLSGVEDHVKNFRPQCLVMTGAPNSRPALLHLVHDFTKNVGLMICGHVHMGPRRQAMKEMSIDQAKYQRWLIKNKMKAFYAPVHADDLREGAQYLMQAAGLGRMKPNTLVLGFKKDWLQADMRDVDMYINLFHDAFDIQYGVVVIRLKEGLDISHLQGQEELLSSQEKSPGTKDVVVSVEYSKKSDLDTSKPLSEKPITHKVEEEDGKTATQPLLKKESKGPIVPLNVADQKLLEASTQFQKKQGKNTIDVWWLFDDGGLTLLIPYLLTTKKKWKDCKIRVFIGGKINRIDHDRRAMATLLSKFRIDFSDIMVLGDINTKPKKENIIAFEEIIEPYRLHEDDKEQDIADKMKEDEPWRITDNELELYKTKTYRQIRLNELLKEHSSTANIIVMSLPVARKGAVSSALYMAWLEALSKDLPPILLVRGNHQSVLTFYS

hNKCC1 [2] = tested on: hNKCC1; design: method as in Gill et al.[47]; settings: Rb+ flux, Ion Channel Reader technology, HEK cell line; ref Gill et al.[47]; cited from earlier work
[3] = ref [9],[10]; cited from earlier work

For `CCCCNc1cc(C(=O)O)cc(S(N)(=O)=O)c1Oc1ccccc1` [Bumetanide], the IC50 (NKCC2) is given as 0.2 to 0.33 µM, the IC50 (NKCC1) is given as 0.25 to 0.6 µM and the IC50 (hNKCC2 isoform B) is given as 0.22 µM. For the same molecule, the IC50 (hNKCC2 isoform F) was 0.16 µM, the IC50 (mNKCC2 isoform B) was 0.6 µM and the IC50 (mNKCC2 isoform F) was 3.4 µM. For the same molecule, the IC50 (hNKCC1 [1]) was 0.16 to 0.28 µM, the IC50 (hNKCC1A) was 0.68 µM and the IC50 (hNKCC1 [2]) was 1160 nM. For the same molecule, the plasma protein binding [3] was over 95%.
